In patent publication US12281149B2, “Modulators of G-protein coupled receptors” (priority 2021, dated 2025):
*1 amine or outer side, *2 acyl side, *3 side chain or, on linkers, in order; H or OH if unused. Where a SMILES comes first, the peptide text is derived from it. Side-chain parts run from the residue outwards. [ ]: non-standard residue; d: D form. The star is where a group is joined. C20 diacid = O=C(O)CCCCCCCCCCCCCCCCCCC(=O)*; X31 = CC(C)(C(=S)NCCC(=O)*)c1cc(F)cc(C#N)c1; NH(4-OCF3-phenyl) = FC(F)(F)Oc1ccc(N*)cc1; γGlu = O=C(O)[C@H](CCC(=O)[*:2])N[*:1]; X13 = CC(C)(C(=O)*)c1cccc(F)c1F; X28 = O=C(C1(n2cccn2)CCNCC1)*; X6 = CC(C)(C(=O)*)c1ccccc1; AEEA = NCCOCCOCC(=O)O; Aib = CC(C)(N)C(=O)O; CO = O=C([*:1])[*:2]; GABA = NCCCC(=O)O; βAla = NCCC(=O)O

Tests used:
Assay type in all cases: cell-based
GLP-1 receptor [1] = target: T1, GLP-1 receptor (Homo sapiens, UniProt P43220); test: PathHunter β-arrestin assay, GLP-1 receptor; parameters: host or cells: PathHunter CHO-K1 GLP1R β-Arrestin Cell Line; settings: β-arrestin-2 recruitment, PathHunter CHO-K1 GLP1R β-Arrestin Cell Line, 90 min at 37° C.; normalized to GLP-1; read-out: GLP-1R β Arrestin EC50
T1 sequence (P43220 24-463): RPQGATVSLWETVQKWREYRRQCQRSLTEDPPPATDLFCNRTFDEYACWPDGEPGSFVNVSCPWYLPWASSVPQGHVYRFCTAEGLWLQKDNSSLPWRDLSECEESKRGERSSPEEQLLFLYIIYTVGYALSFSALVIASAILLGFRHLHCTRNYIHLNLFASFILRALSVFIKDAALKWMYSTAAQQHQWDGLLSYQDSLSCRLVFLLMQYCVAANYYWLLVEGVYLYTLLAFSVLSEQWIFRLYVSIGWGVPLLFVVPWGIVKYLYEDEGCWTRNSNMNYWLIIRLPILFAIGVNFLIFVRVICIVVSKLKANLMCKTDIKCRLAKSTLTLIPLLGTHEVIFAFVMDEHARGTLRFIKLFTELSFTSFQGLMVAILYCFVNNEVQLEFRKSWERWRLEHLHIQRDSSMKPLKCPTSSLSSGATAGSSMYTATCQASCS

GIP receptor [2] = target: T2, GIP receptor (Homo sapiens, UniProt P48546); test: HitHunter cAMP assay, GIP receptor; settings: for EC50: CHO cells stably expressing GIP receptor, cAMP accumulation, 30 min, read-out: EC50 GIP-1R; for Emax: CHO cells, cAMP, normalized to maximum signal from GIP (high) and DMSO (low), read-out: Emax GIP-1R
T2 sequence (P48546 22-466): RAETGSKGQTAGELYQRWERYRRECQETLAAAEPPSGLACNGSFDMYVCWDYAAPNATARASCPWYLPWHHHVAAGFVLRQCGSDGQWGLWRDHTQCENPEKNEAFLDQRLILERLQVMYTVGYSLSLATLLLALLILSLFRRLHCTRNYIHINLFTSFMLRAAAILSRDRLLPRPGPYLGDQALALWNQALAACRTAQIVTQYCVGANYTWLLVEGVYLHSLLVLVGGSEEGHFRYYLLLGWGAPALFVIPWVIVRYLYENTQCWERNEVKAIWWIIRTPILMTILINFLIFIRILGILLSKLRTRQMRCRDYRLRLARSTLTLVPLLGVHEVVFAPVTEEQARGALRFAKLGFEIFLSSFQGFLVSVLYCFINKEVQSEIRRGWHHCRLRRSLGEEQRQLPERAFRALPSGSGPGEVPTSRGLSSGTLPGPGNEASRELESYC

GLP-1 receptor [3] = target: T1, GLP-1 receptor; test: HitHunter cAMP assay, GLP-1 receptor; settings: for EC50: CHO cells stably expressing human GLP-1 receptor, cAMP accumulation, 30 min, read-out: EC50 GLP-1R; for Emax: CHO cells, cAMP, normalized to maximum signal from GLP-1 (high) and DMSO (low), read-out: Emax GLP-1R
GIP receptor [4] = target: T2, GIP receptor; test: PathHunter β-arrestin assay, GIP receptor; parameters: host or cells: PathHunter CHO-K1 GIPR β-Arrestin Cell Line; settings: β-arrestin-2 recruitment, PathHunter CHO-K1 GIPR β-Arrestin Cell Line, 90 min at 37° C.; normalized to GIP; read-out: GIPR β Arrestin EC50

Row | SMILES | EC50 (GLP-1 receptor [1]) [nM] | EC50 (GIP receptor [2]) [nM] | Emax (GIP receptor [2]) [%] | EC50 (GLP-1 receptor [3]) [nM] | Emax (GLP-1 receptor [3]) [%] | EC50 (GIP receptor [4]) [nM]
1 | CC[C@H](C)[C@H](NC(=O)[C@H](CC(C)C)NC(=O)[C@H](Cc1c[nH]c2ccccc12)NC(=O)[C@H](CCC(N)=O)NC(=O)[C@@H](NC(=O)[C@H](Cc1ccccc1)NC(=O)[C@H](C)NC(=O)[C@H](CCCCNC(=O)COCCOCCNC(=O)COCCOCCNC(=O)CC[C@H](NC(=O)CCCCCCCCCCCCCCCCCCC(=O)O)C(=O)O)NC(=O)[C@H](CCC(N)=O)NC(=O)[C@H](C)NC(=O)[C@@H](NC(=O)[C@H](CCCCN)NC(=O)[C@H](CC(=O)O)NC(=O)[C@H](CC(C)C)NC(=O)C(C)(C)NC(=O)[C@@H](NC(=O)[C@H](CO)NC(=O)[C@H](Cc1ccc(O)cc1)NC(=O)[C@H](CC(=O)O)NC(=O)[C@H](CO)NC(=O)[C@@H](NC(=O)[C@H](Cc1ccccc1)NC(=O)[C@@H](NC(=O)CNC(=O)[C@H](CCC(=O)O)NC(=O)CCNC(=S)C(C)(C)c1cc(F)cc(C#N)c1)[C@@H](C)O)[C@@H](C)O)[C@@H](C)CC)[C@@H](C)CC)C(C)C)C(=O)N[C@@H](C)C(=O)NCC(=O)NCC(=O)N1CCC[C@H]1C(=O)N[C@@H](CO)C(=O)N[C@@H](CO)C(=O)NCC(=O)N[C@@H](C)C(=O)N1CCC[C@H]1C(=O)N1CCC[C@H]1C(=O)N1CCC[C@H]1C(=O)N[C@@H](CO)C(N)=O [Compound 135] (X31-EGTFTSDYSI[Aib]LDKIAQK([AEEA-AEEA-γGlu-C20 diacid])AFVQWLIAGGPSSGAPPPS-NH2) | > 1000 | 10 to 100 | 87 | 0.1 to 1 | 99 | > 1000
2 | CC[C@H](C)[C@H](NC(=O)[C@H](CC(C)C)NC(=O)[C@H](Cc1c[nH]c2ccccc12)NC(=O)[C@H](CCC(N)=O)NC(=O)[C@@H](NC(=O)[C@H](Cc1ccccc1)NC(=O)[C@H](C)NC(=O)[C@H](CCCCNC(=O)COCCOCCNC(=O)COCCOCCNC(=O)CC[C@H](NC(=O)CCCCCCCCCCCCCCCCCCC(=O)O)C(=O)O)NC(=O)[C@H](CCC(N)=O)NC(=O)[C@H](C)NC(=O)[C@@H](NC(=O)[C@H](CCCCN)NC(=O)[C@H](CC(=O)O)NC(=O)[C@H](CC(C)C)NC(=O)C(C)(C)NC(=O)[C@@H](NC(=O)[C@H](CO)NC(=O)[C@H](Cc1ccc(O)cc1)NC(=O)[C@H](CC(=O)O)NC(=O)[C@H](CO)NC(=O)[C@@H](NC(=O)[C@H](Cc1ccccc1)NC(=O)[C@@H](NC(=O)CNC(=O)[C@H](CCC(=O)O)NC(=O)CCNC(=O)C(C)(C)c1cccc(F)c1F)[C@@H](C)O)[C@@H](C)O)[C@@H](C)CC)[C@@H](C)CC)C(C)C)C(=O)N[C@@H](C)C(=O)NCC(=O)NCC(=O)N1CCC[C@H]1C(=O)N[C@@H](CO)C(=O)N[C@@H](CO)C(=O)NCC(=O)N[C@@H](C)C(=O)N1CCC[C@H]1C(=O)N1CCC[C@H]1C(=O)N1CCC[C@H]1C(=O)N[C@@H](CO)C(N)=O [Compound 147] ({X13-βAla}-EGTFTSDYSI[Aib]LDKIAQK([AEEA-AEEA-γGlu-C20 diacid])AFVQWLIAGGPSSGAPPPS-NH2) | > 1000 | 0.1 to 1 | 102 | 0.1 to 1 | 99 | < 1000
3 | CC[C@H](C)[C@H](NC(=O)[C@H](CC(C)C)NC(=O)[C@H](Cc1c[nH]c2ccccc12)NC(=O)[C@H](CCC(N)=O)NC(=O)[C@@H](NC(=O)[C@H](Cc1ccccc1)NC(=O)[C@H](C)NC(=O)[C@H](CCCCNC(=O)COCCOCCNC(=O)COCCOCCNC(=O)CC[C@H](NC(=O)CCCCCCCCCCCCCCCCCCC(=O)O)C(=O)O)NC(=O)[C@H](CCC(N)=O)NC(=O)[C@H](C)NC(=O)[C@@H](NC(=O)[C@H](CCCCN)NC(=O)[C@H](CC(=O)O)NC(=O)[C@H](CC(C)C)NC(=O)C(C)(C)NC(=O)[C@@H](NC(=O)[C@H](CO)NC(=O)[C@H](Cc1ccc(O)cc1)NC(=O)[C@H](CC(=O)O)NC(=O)[C@H](CO)NC(=O)[C@@H](NC(=O)[C@H](Cc1ccccc1)NC(=O)[C@@H](NC(=O)CNC(=O)[C@H](CCC(=O)O)NC(=O)CCCNC(=O)CNC(=O)Nc1ccc(OC(F)(F)F)cc1)[C@@H](C)O)[C@@H](C)O)[C@@H](C)CC)[C@@H](C)CC)C(C)C)C(=O)N[C@@H](C)C(=O)NCC(=O)NCC(=O)N1CCC[C@H]1C(=O)N[C@@H](CO)C(=O)N[C@@H](CO)C(=O)NCC(=O)N[C@@H](C)C(=O)N1CCC[C@H]1C(=O)N1CCC[C@H]1C(=O)N1CCC[C@H]1C(=O)N[C@@H](CO)C(N)=O [Compound 269] ({NH(4-OCF3-phenyl)-CO}-G[GABA]EGTFTSDYSI[Aib]LDKIAQK([AEEA-AEEA-γGlu-C20 diacid])AFVQWLIAGGPSSGAPPPS-NH2) | > 1000 | 1 to 10 | 103 | 1 to 10 | 96 | < 1000
4 | CC[C@H](C)[C@H](NC(=O)[C@H](CC(C)C)NC(=O)[C@H](Cc1c[nH]c2ccccc12)NC(=O)[C@H](CCC(N)=O)NC(=O)[C@@H](NC(=O)[C@H](Cc1ccccc1)NC(=O)[C@H](C)NC(=O)[C@H](CCCCNC(=O)COCCOCCNC(=O)COCCOCCNC(=O)CC[C@H](NC(=O)CCCCCCCCCCCCCCCCCCC(=O)O)C(=O)O)NC(=O)[C@H](CCC(N)=O)NC(=O)[C@H](C)NC(=O)[C@@H](NC(=O)[C@H](CCCCN)NC(=O)[C@H](CC(=O)O)NC(=O)[C@H](CC(C)C)NC(=O)C(C)(C)NC(=O)[C@@H](NC(=O)[C@H](CO)NC(=O)[C@H](Cc1ccc(O)cc1)NC(=O)[C@H](CC(=O)O)NC(=O)[C@H](CO)NC(=O)[C@@H](NC(=O)[C@H](Cc1ccccc1)NC(=O)[C@@H](NC(=O)CNC(=O)[C@H](CCC(=O)O)NC(=O)CCNC(=O)C(C)(C)c1ccccc1)[C@@H](C)O)[C@@H](C)O)[C@@H](C)CC)[C@@H](C)CC)C(C)C)C(=O)N[C@@H](C)C(=O)NCC(=O)NCC(=O)N1CCC[C@H]1C(=O)N[C@@H](CO)C(=O)N[C@@H](CO)C(=O)NCC(=O)N[C@@H](C)C(=O)N1CCC[C@H]1C(=O)N1CCC[C@H]1C(=O)N1CCC[C@H]1C(=O)N[C@@H](CO)C(N)=O [Compound 241] ({X6-βAla}-EGTFTSDYSI[Aib]LDKIAQK([AEEA-AEEA-γGlu-C20 diacid])AFVQWLIAGGPSSGAPPPS-NH2) | < 1000 | 1 to 10 | 100 | 0.1 to 1 | 95 | < 1000
5 | CC[C@H](C)[C@H](NC(=O)[C@H](CC(C)C)NC(=O)[C@H](Cc1c[nH]c2ccccc12)NC(=O)[C@H](CCC(N)=O)NC(=O)[C@@H](NC(=O)[C@H](Cc1ccccc1)NC(=O)[C@H](C)NC(=O)[C@H](CCCCNC(=O)COCCOCCNC(=O)COCCOCCNC(=O)CC[C@H](NC(=O)CCCCCCCCCCCCCCCCCCC(=O)O)C(=O)O)NC(=O)[C@H](CCC(N)=O)NC(=O)[C@H](C)NC(=O)[C@@H](NC(=O)[C@H](CCCCN)NC(=O)[C@H](CC(=O)O)NC(=O)[C@H](CC(C)C)NC(=O)C(C)(C)NC(=O)[C@@H](NC(=O)[C@H](CO)NC(=O)[C@H](Cc1ccc(O)cc1)NC(=O)[C@H](CC(=O)O)NC(=O)[C@H](CO)NC(=O)[C@@H](NC(=O)[C@H](Cc1ccccc1)NC(=O)[C@@H](NC(=O)CNC(=O)[C@H](CCC(=O)O)NC(=O)CCNC(=O)C1(n2cccn2)CCNCC1)[C@@H](C)O)[C@@H](C)O)[C@@H](C)CC)[C@@H](C)CC)C(C)C)C(=O)N[C@@H](C)C(=O)NCC(=O)NCC(=O)N1CCC[C@H]1C(=O)N[C@@H](CO)C(=O)N[C@@H](CO)C(=O)NCC(=O)N[C@@H](C)C(=O)N1CCC[C@H]1C(=O)N1CCC[C@H]1C(=O)N1CCC[C@H]1C(=O)N[C@@H](CO)C(N)=O [Compound 160] ({X28-βAla}-EGTFTSDYSI[Aib]LDKIAQK([AEEA-AEEA-γGlu-C20 diacid])AFVQWLIAGGPSSGAPPPS-NH2) | > 1000 | 100 to 1000 | 94 | 10 to 100 | 97 | > 1000
